Source: patent publication US8916579B2, “5-fluoropyrimidinone derivatives” (Dow AgroSciences, LLC., priority 2009, dated 2014)
Where two headings read alike, the source gives them in different places.

How the values were obtained:
[1] = tested on: Mycosphaerella graminicola; anamorph: Septoria tritici; Bayer code SEPTTR; experiment: Fungicidal activity: leaf blotch of wheat, greenhouse wheat plants (variety Yuma), percent disease control; type: in vivo; conditions: Zymoseptoria tritici
Protocol: Evaluation of Fungicidal Activity: Leaf Blotch of Wheat (Mycosphaerella graminicola; anamorph: Septoria tritici; Bayer code SEPTTR)
Wheat plants (variety Yuma) were grown from seed in a greenhouse in 50% mineral soil/50% soil-less Metro mix until the first leaf was fully emerged, with 7-10 seedlings per pot. These plants were inoculated with an aqueous spore suspension of Septoria tritici either prior to or after fungicide treatments. After inoculation the plants were kept in 100% relative humidity (one day in a dark dew chamber followed by two to three days in a lighted dew chamber) to permit spores to germinate and infect the leaf. The plants were then transferred to a greenhouse for disease to develop.
The effectiveness of the test compounds in controlling disease was determined by assessing the severity of disease on treated plants, then converting the severity to percent control based on the level of disease on untreated, inoculated plants. • In each case of Table II the rating scale is as follows: […]

[2] = 24 h, One-Day Protectant (1DP), 100 ppm, wheat plants, read-out: SEPTTR 100 PPM 1DP (% Disease Control rating)
[3] = 72 h, Three-Day Curative (3DC), 100 ppm, wheat plants, read-out: SEPTTR 100 PPM 3DC (% Disease Control rating)

melting point | Compound | also measured
134.5 to 136.5 °C | CC(=O)Nc1nc(=O)n(CC(C)C)cc1F [Compound 97] | pest or weed control at 100 ppm [1, 2]: 26 to 50%; pest or weed control at 100 ppm [1, 3]: 26 to 50%
137.1 to 138.8 °C | CCOC(=O)Nc1nc(=O)n(CSC)cc1F [Compound 84] | 
255 °C (dec.) | Nc1nc(=O)n(CC2CCOC2)cc1F (centres unmarked) [Compound 32] | pest or weed control at 100 ppm [1, 2]: 76 to 100%; pest or weed control at 100 ppm [1, 3]: 76 to 100%
151.5 to 152.6 °C | O=c1nc(NCc2ccccc2F)c(F)cn1C1=CCCCC1 [Compound 69] | 
116.8 to 117.8 °C | CCOCCn1cc(F)c(NC(=O)c2ccccc2F)nc1=O [Compound 101] | 
240 to 245 °C | Nc1nc(=O)n(COc2ccc(Cl)cc2)cc1F [Compound 19] | pest or weed control at 100 ppm [1, 2]: 26 to 50%; pest or weed control at 100 ppm [1, 3]: 0 to 25%
147 to 147.9 °C | C=C(c1ccccc1)n1cc(F)c(/N=C/N(C)C)nc1=O [Compound 61] | 
63 to 65 °C | CCNc1nc(=O)n(CCOCC)cc1F [Compound 108] | 
207.5 to 209 °C | O=c1nc(NCc2ccccc2F)c(F)cn1-c1ccc2ccccc2c1 [Compound 73] | 
190.6 to 192.7 °C | Nc1nc(=O)n(C2=CCCCC2)cc1F [Compound 51] | 
144.7 to 146.3 °C | CCC/C=C/n1cc(F)c(/N=C/N(C)C)nc1=O [Compound 62] | 
263.3 to 265.1 °C | COc1ccc(/C=C/n2cc(F)c(N)nc2=O)cc1 [Compound 54] | 
244.4 to 245.7 °C | CS(=O)(=O)c1ccc(-n2cc(F)c(N)nc2=O)cc1 [Compound 50] | 
212 to 214 °C | Nc1nc(=O)n(/C=C/Cc2ccccc2)cc1F [Compound 49] | 
207.3 to 208.2 °C | CCOCCn1cc(F)c(N)nc1=O [Compound 78] | 
233 to 235 °C | Nc1nc(=O)n(-c2ccccc2)cc1F [Compound 42] | 

melting point | Compound | also measured
231.6 to 233.1 °C | CS(=O)(=O)c1ccc(-n2cc(F)c(NCc3ccccc3F)nc2=O)cc1 [Compound 68] | 
256 to 258 °C | Nc1nc(=O)n(/C=C/c2ccccc2)cc1F [Compound 48] | 
128.5 to 130.6 °C | CSCn1cc(F)c(N)nc1=O [Compound 79] | 
196.8 to 198.5 °C | COc1ccc(/C=C/n2cc(F)c(NCc3ccccc3F)nc2=O)cc1 [Compound 72] | 
152.8 to 153.4 °C | CCC/C=C/n1cc(F)c(N)nc1=O [Compound 53] | 
255 to 257 °C | Nc1nc(=O)n(-c2ccc(Cl)cc2)cc1F [Compound 45] | 
138.9 to 140.2 °C | C=C(c1ccccc1)n1cc(F)c(NCc2ccccc2F)nc1=O [Compound 70] | 
109 to 110.4 °C | CCOCCn1cc(F)c(NC(=O)c2cccs2)nc1=O [Compound 100] | 
230 to 232 °C | COc1ccc(-n2cc(F)c(N)nc2=O)cc1 [Compound 44] | 
272.8 to 274.2 °C | Nc1nc(=O)n(-c2ccc3ccccc3c2)cc1F [Compound 55] | 
264.3 to 265.3 °C | COc1ccc(/C=C/n2cc(F)c(/N=C/N(C)C)nc2=O)cc1 [Compound 63] | 
173.2 to 174.4 °C | CN(C)/C=N/c1nc(=O)n(C2=CCCCC2)cc1F [Compound 60] | 
222.4 to 224.4 °C | CN(C)/C=N/c1nc(=O)n(-c2ccc3ccccc3c2)cc1F [Compound 64] | 
211.2 to 213 °C | C=C(c1ccccc1)n1cc(F)c(N)nc1=O [Compound 52] | 
 | CN(C)/C=N/c1nc(=O)n(Cc2ccc(F)cc2)cc1F [Compound 4, N′-[5-fluoro-1-(4-fluorobenzyl)-2-oxo-1,2-dihydro-pyrimidin-4-yl]-N,N-dimethylformamidine] | pest or weed control at 100 ppm [1, 2]: 26 to 50%; pest or weed control at 100 ppm [1, 3]: 0 to 25%

Compound | melting point | also measured
CC(C)COC(=O)Nc1nc(=O)n(C)cc1F [Compound 10, (5-fluoro-1-methyl-2-oxo-1,2-dihydropyrimidin-4-yl)carbamic acid isobutyl ester] | 126 to 128 °C | pest or weed control at 100 ppm ([1]; 24 h, read-out: SEPTTR 100 PPM 1DP (% Disease Control rating)): 26 to 50%; pest or weed control at 100 ppm ([1]; 72 h, read-out: SEPTTR 100 PPM 3DC (% Disease Control rating)): 51 to 75%
